Data: a melting point compilation (Tetko et al.; mined from patent text by program, amines drawn as free bases though some values may be those of a salt)

SMILES | melting point [°C]
CC(=O)OC1CSC(Sc2ccc(S(=O)(=O)c3ccccc3)cc2)C(OC(C)=O)C1OC(C)=O (stereo not given) | 159
O=C(O)CNC(=O)c1nc2ccc(OCC(F)(F)C(F)(F)C(F)(F)C(F)F)cc2cc1O | 170 to 172
O=C1c2ccccc2C(=O)N1CCN1CCC(c2noc3cc(F)ccc23)CC1 | 143 to 145
O=C(CC1CC1)NC[C@H]1CN(c2ccc3c(c2)CCCc2cn[nH]c2-3)C(=O)O1 | 212 to 215
O=C1CCN(Cc2ccccc2)CC1=C(c1ccccc1)c1ccccc1 | 135 to 137
Clc1cc2c(cc1Cn1ccnc1)OCO2 | 99 to 102
O=C1C(Br)CCN1c1cc(C(F)(F)F)ccn1 (stereo not given) | 43 to 47
CC(=O)N(C(C)=O)c1cscn1 | 55
C=CC(=O)N1CCSc2ccccc2C1 | 108 to 110
c1cc2c(c(NC3=NCCO3)c1)CCCC2 | 101 to 103
CN(C)c1cccc2c(S(=O)(=O)Nc3ncc(Br)nc3Br)cccc12 | 178
N#Cc1ccc2ccn(C3CCN(CCc4ccc(F)cc4)CC3)c2c1 | 131 to 132
COc1cc(OC)c(F)c(N)c1F | 78 to 79
Nc1ncc2ncnc(Nc3ccc(F)c(Cl)c3)c2n1 | 300 to 301
COc1ccc2c(n1)C1(CO2)C(=O)N(Cc2csc(C(C)C)n2)c2ccccc21 (stereo not given) | 136 to 138
COc1cc(CN2CCCC2)ccc1OCC(=O)Nc1ccc(-c2ccc(Cl)cc2)cc1 | 89 to 91
CNC(=O)c1c(Cl)ccc(Cl)c1OC | 172 to 175
Cc1cccn2cc(C(C)C)c(S(=O)(=O)c3ccc(O)cc3)c12 | 191 to 193
CCOC(=O)CNc1c(C)cc(C(O)(C(F)(F)Cl)C(F)(F)Cl)cc1C | 102 to 104
Cc1ccc(S(=O)(=O)N2CCC(Sc3ccc(Cl)cc3)CC2)cc1 | 112 to 114
CC(O)Cc1cc([N+](=O)[O-])cc([N+](=O)[O-])c1N (stereo not given) | 168
CCCc1ccc(C(=O)Nc2ccc3sc(C)nc3c2Cl)cc1 | 184
COC(=O)c1cccc(Sc2ccc(N(C)C)cc2)c1 | 88 to 90
CCCCc1nc2c(N)nc3ccc(OCC(=O)N4CCCCC4)cc3c2n1C | 222 to 223
CC1C=C(c2nnn[nH]2)CN(CC(=O)O)C1 (stereo not given) | 150 to 152

SMILES | melting point [°C]
Cc1ncc2c(n1)-c1ccc(Cl)cc1C(c1ccccc1Cl)N(C)C2 (stereo not given) | 155 to 156
Cc1cc(Oc2c(Cl)cc(C(F)(F)F)cc2Cl)nn1C(=O)OC(C)(C)C | 159 to 161
CCCn1nc2c(N)nc3ccccc3c2c1CCCC1=CCN(Cc2ccccc2)C1 | 150 to 152
ClCSc1ccccc1Br | 28 to 30
CC(C)c1nc(CN2C(=O)C3(COc4cc5c(cc43)OCO5)c3ccccc32)co1 (stereo not given) | 118 to 120
O=C(c1cc(Cl)ccc1O)c1cc(Cl)cc([N+](=O)[O-])c1O | 153
O=c1c2ccccc2sc2ccc(O)cc12 | 232 to 241
O=C1C(=NO)Nc2c(Br)cccc21 | > 250
CC(C)c1cccc(C(C)C)c1NC(=O)NCC1(O)CCCc2ccccc21 (stereo not given) | 170 to 171
CCCCN1CCC(CNC(=O)c2ccc(N)n3cc(CC)nc23)CC1 | 139 to 145
Cc1cc([C@@H](O)[C@@H]2[C@@H](C)CCCC2(C)C)ccc1C#N | 111 to 113
CCC(C)c1cc(C=O)cc(C(C)CC)c1O (stereo not given) | 65 to 68
NC(=O)C1Cc2c([nH]c3ccccc23)CN1 (stereo not given) | 212 to 216
N#CCOc1coc2ccccc2c1=O | 145 to 146
CN(C(=O)C(C#N)C(=O)c1nn(-c2ccccc2)c2c1COc1ccccc1-2)c1ccccc1 (stereo not given) | 183 to 184
Nc1ccc(CCN2CCN(c3ccc(N)cc3)CC2)cc1 | 156 to 158
CN(CC(=O)O)C(=O)CCc1nc2c(F)c(F)cc(F)c2s1 | 138 to 140
COc1cc(C(=O)N2CCN(C(=O)/C=C/c3cccc(-c4cc(OC)c(OC)c(OC)c4)c3)CC2)cc(OC)c1OC | 149 to 151
COc1cccc2c(CCN(CC3CC3)C3COc4c(F)ccc(C(N)=O)c4C3)coc12 (stereo not given) | 130 to 138
N#Cc1ccccc1Cn1cc(-c2ccnc(NCCCO)n2)n(-c2ccc(F)cc2)c1=O | 166 to 167
CCCCCCCCCCCCCCCCCCOc1cc(OC(=O)C(c2ccccc2)c2ccccc2)cc(C(=O)OCc2ccccc2)c1 | 47 to 49
CC1(C)CC(NC(=O)Nc2ccccc2)c2cc(C#N)ccc21 (stereo not given) | 150 to 152
CCOCn1nccc1C(=O)c1ccc(O)c(Cl)c1Cl | 115 to 117
O=C(C=C1CC(C(=O)O)Nc2cc(Cl)ccc21)Nc1ccccc1 (racemic) | 118 to 120
Clc1ccc2scc(-c3ccncc3)c2c1 | 90 to 91
